Experimental data published in patent US12076401B2, “Benzamide and active compound compositions and methods of use” (TRANSLATIONAL DRUG DEVELOPMENT, LLC, priority 2015, dated 2024).
Where “and” joins values, the source holds several entries; their conditions need not be identical. Equal entries are not always repeated. Where two headings read alike, the source gives them in different places.

Assays:
[1] = cited from earlier work
[2] = Pharmacokinetic studies, plasma of healthy mice; assay type: in vivo; conditions: mouse; for Half-life: 1.0 mg/kg IV; for AUC0-∞: 5.0 mg/kg PO; for AUC: plasma, 5 mg/kg oral (PO)
Procedure: Plasma samples were collected from healthy mice and analyzed for levels of compound ID #24, ID #25, and ID #26 and reported in Table 6. In brief, compounds were individually and accurately weighed out to produce a stock solution in Dimethyl-sulfoxide (DMSO) at a concentration of 2 mg/mL and stored at −20° C. From the stock solution, a working stock was prepared by diluting it in Methanol-Water 50:50 (v/v) at 20 μg/mL for calibration curve preparation and stored at 4° C. Standards used for quantitation and quality control samples (QC's) were prepared on the same day of sample processing using blank plasma obtained from non-treated mice. For each analyte, standards were prepared through serial dilution of the working stock at concentrations of 0.1, 0.5, 1.0, 10, 50, 100, 500 and 1000 ng/mL; QC's were prepared at intermediate concentrations of 0.75, 7.5, 75 and 750 ng/mL. Plasma samples were stored at −80° C. until ready for analysis and then placed on ice for thawing. An aliquot of 20 μL for samples, standards and QC's, were transferred into a 96-well extraction plate according to a pre-defined layout. Appropriate volume of Methanol-Formic Acid 99.9-0.1 containing internal standard (Verapamil at 25 ng/mL) was added to each well and samples were extracted under vacuum. Eluent was then transferred into a LCMS plate for analysis using a suitable column for separation and MRM detection. Concentration of analytes was calculated based on the calibration curve and analyzed for pharmacokinetic parameters by using Non-compartmental analysis (NCA) using WinNonlin Phoenix software. Parameters such as Cmax, Tmax, half-life, AUC(0-last), AUC(0-∞), volume of distribution (Vss) and clearance (Cl/F) were reported.
The analogs were tested for pharmacokinetic analysis in the mouse with doses of 1 mg/kg for intravenous (IV) route and 5 mg/kg for oral (PO) route. […] Overall exposure following IV dose also favored compound ID #24 with AUC0-∞ 1488.1 hr*ng/mL whereas compound ID #25 and ID #26 were 329.1 and 1193.7 hr*ng/mL, respectively.

cancer cell models = conditions: cited from earlier work
CT-26 = CT-26 murine colon tumor volume growth; assay type: in vivo; conditions: 150.00 mg/kg PO QD to end + Isotype Control 0.05 mg/kg IP QDx1, in mm³
Procedure: • Group 1 Isotype Control+Compound ID #24 Vehicle Control • Group 2 Isotype Control+Compound ID #24 • Group 3 Anti-m4-1BB 0.05 mg/kg • Group 4 Anti-m4-1BB 0.10 mg/kg • Group 5 Anti-m4-1BB 0.05 mg/kg+Compound ID #24

MC-38 = MC-38 murine colon tumor volume growth; assay type: in vivo; conditions: 150.00 mg/kg PO QD to end, in mm³
Procedure: • Group 1 Isotype Control 5.00 mg/kg+Compound ID #24 Vehicle • Group 3 Compound ID #24 150.00 mg/kg • Group 4 anti-mGITR 5.00 mg/kg • Group 6 anti-mGITR 5.00 mg/kg+Compound ID #24 150.00 mg/kg

U266 = assay: CellTiter-Glo cell viability, U266 (Myeloma); assay type: cell-based
Procedure: Compound ID #24 (a compound of formula (I)) and Compound ID #26 (a compound of formula (II)) were tested for the inhibition of cancer cell proliferation. Cell viability in the presence of varying concentrations of Compound ID #24 and Compound ID #26 at different time points was used to assess cytotoxicity and the effect of the compounds on cell proliferation. The data clearly show the surprising and unexpected increased anti-cancer activity associated with Compound ID #24 compared to Compound ID #26.
Cell Viability Assay—Cell viability was measured by the CellTiter-Glo® cell viability assay Promega (Madison, Wis.). The CellTiter-Glo® Luminescent Cell Viability Assay is a homogeneous method to determine the number of viable cells in culture based on quantitation of the ATP present, which signals the presence of metabolically active cells. Following treatment, CellTiter-Glo® is added to treatment wells and incubated at 37° C. luminescence values were measured at using a Molecular Devices Spectramax microplate reader.
Single Agent Studies—Cells were grown to 70% confluency, trypsinized, counted, and seeded in 96 well flat-bottom plates at a final concentration of 2.5×10^3-5×10^3 cells/well (Day 0). Cells were allowed to incubate in growth media for 24 hours. […] Viable cell numbers are quantified by the CellTiter-Glo® cell viability assay as described above. […]

[3] = test system: MM1.S human myeloma cells; assay: Human MM1.S myeloma xenograft, single agent screening; assay type: in vivo; conditions: female athymic nude mice; 100 mg/kg daily for 19 days, oral gavage
Description: Body weights and tumor measurements were collected twice weekly.

[4] = test system: intratumoral CD8 T-cells and natural killer cells; assay: Intratumoral immune cells in tumor bearing mice; assay type: in vivo

## Nc1ncn([C@@H]2O[C@H](CO)[C@@H](O)[C@H]2O)c(=O)n1 [Azacitidine, 4-amino-1-β-D-ribofuranozyl-s-triazin-2(1H)-one]
[1]; acetone, ethanol and methyl ketone
  Solubility: insoluble
[1]; dimethylsulfoxide (DMSO)
  Solubility: soluble
[1]; ethanol/water (50/50), propylene glycol and polyethylene glycol
  Solubility: slightly soluble
[1]; water, water-saturated octanol, 5% dextrose in water, N-methyl-2-pyrrolidone, normal saline and 5% Tween 80 in water
  Solubility: sparingly soluble

## O=C(NO)c1ccc(Nc2nc3ccccc3n2C2CCCCC2)cc1 [Compound ID #25, 4-(1-cyclohexyl-1H-benzo[d]imidazol-2-ylamino)-N-hydroxybenzamide]
[2]
  Half-life: 1.20 h
  AUC0-∞: 1277.26 ng·h/mL
  AUC: 1280 ng·h/mL

## Nc1ncn([C@H]2C[C@H](O)[C@@H](CO)O2)c(=O)n1 [Decitabine, 4-amino-1-(2-deoxy-β-D-erythro-pentofuranosyl)-1,3,5-triazin-2(1H)one]
[1]; dimethylsulfoxide (DMSO)
  Solubility: soluble
[1]; ethanol/water (50/50), methanol/water (50/50) and methanol
  Solubility: slightly soluble
[1]; water
  Solubility: sparingly soluble
Cancer cell models; Palii et al. 2008
  cell cycle, clonogenic survival and growth in cells: causes G2 arrest, reduces clonogenic survival, and inhibits growth in cells
Cancer cell models; through re-expression of silenced genes
  effect on growth and apoptosis of cancer cell models: suppression of growth and apoptosis

## O=C(NO)c1ccc(Nc2nc3ccccc3n2C2CCCCCC2)cc1 [Compound ID #26, 4-(1-cycloheptyl-1H-benzo[d]imidazol-2-ylamino)-N-hydroxybenzamide]
[2]
  AUC: 1650 ng·h/mL

## O=C(NO)c1ccc(Nc2nc3ccccc3n2CC2CCCCC2)cc1 [Compound ID #24, 4-(1-(cyclohexylmethyl)-1H-benzo[d]imidazol-2-ylamino)-N-hydroxybenzamide]
CT-26; Day 1
  Tumor volume, Mean: 122.0
  Tumor volume, Median: 113.8
  Tumor volume, individual animals: 106 and 85 and 156 and 149 and 114
CT-26; Day 5
  Tumor volume, Mean: 165.5
  Tumor volume, Median: 144.8
  Tumor volume, individual animals: 131 and 73 and 299 and 158
CT-26; Day 8
  Tumor volume, Mean: 215.2
  Tumor volume, Median: 208.7
  Tumor volume, individual animals: 176 and 65 and 378 and 242
CT-26; Day 9
  Tumor volume, Mean: 241.8
  Tumor volume, Median: 245.2
  Tumor volume, individual animals: 198 and 65 and 412 and 292
CT-26; Day 12
  Tumor volume, Mean: 307.4
  Tumor volume, Median: 285.7
  Tumor volume, individual animals: 212 and 68 and 590 and 359
CT-26; Day 14
  Tumor volume, Mean: 382.7
  Tumor volume, Median: 352.6
  Tumor volume, individual animals: 254 and 67 and 758 and 452
MC-38; Day 1
  Tumor volume, Mean: 94.5
  Tumor volume, Median: 92.2
  Tumor volume, individual animals: 68 and 81 and 103 and 128 and 92
MC-38; Day 6
  Tumor volume, Mean: 141.8
  Tumor volume, Median: 137.6
  Tumor volume, individual animals: 72 and 92 and 138 and 231 and 176
MC-38; Day 9
  Tumor volume, Mean: 154.8
  Tumor volume, Median: 148.0
  Tumor volume, individual animals: 83 and 121 and 148 and 240 and 182
MC-38; Day 12
  Tumor volume, Mean: 187.8
  Tumor volume, Median: 190.0
  Tumor volume, individual animals: 123 and 158 and 222 and 248
MC-38; Day 15
  Tumor volume, Mean: 235.9
  Tumor volume, Median: 251.8
  Tumor volume, individual animals: 135 and 213 and 290 and 305
MC-38; Day 19
  Tumor volume, Mean: 285.2
  Tumor volume, Median: 289.3
  Tumor volume, individual animals: 178 and 289 and 388
MC-38; Day 22
  Tumor volume, Mean: 389.1
  Tumor volume, Median: 397.8
  Tumor volume, individual animals: 244 and 398 and 526
MC-38; Day 26
  Tumor volume, Mean: 566.5
  Tumor volume, Median: 540.0
  Tumor volume, individual animals: 370 and 540 and 789
MC-38; Day 29
  Tumor volume, Mean: 714.8
  Tumor volume, Median: 646.1
  Tumor volume, individual animals: 495 and 646 and 1,003
U266
  Improvement ID#24 over ID#26 Fold Change: 3.50
[3]
  anticancer activity (tumor volume): significantly superior anticancer activity when compared to either Compound ID #25 or Compound ID #26
[2]
  Half-life: 3.70 h
  AUC0-∞: 3974.82 ng·h/mL
  AUC: 3970 ng·h/mL
[4]
  numbers of intratumoral CD8 T-cells and natural killer cells: increased numbers of intratumoral CD8 T-cells and natural killer cells
